Measured values: paper PMC10507085, “Pharmacological inhibition of TBK1/IKKε blunts immunopathology in a murine model of SARS-CoV-2 infection” (Nature Communications, 2023)

Legend:
Test in all cases: biochemical
Design in all cases: KINOMEscan competition binding, DNA-tagged kinase against immobilised ligand, qPCR read-out
BMP2K = BMP2K (Homo sapiens, UniProt Q9NSY1); conditions: read-out: Percent Control
BRAF = BRAF (Homo sapiens, UniProt P15056); conditions: read-out: Percent Control
CDC42BPB = CDC42BPB (Homo sapiens, UniProt Q9Y5S2); conditions: read-out: Percent Control
CDK3 = CDK3 (Homo sapiens, UniProt Q00526); conditions: read-out: Percent Control
CDKL3 = CDKL3 (Homo sapiens, UniProt Q8IVW4); conditions: read-out: Percent Control
CHEK1 = CHEK1 (Homo sapiens, UniProt O14757); conditions: read-out: Percent Control
CHEK1, sequence (O14757 whole entry): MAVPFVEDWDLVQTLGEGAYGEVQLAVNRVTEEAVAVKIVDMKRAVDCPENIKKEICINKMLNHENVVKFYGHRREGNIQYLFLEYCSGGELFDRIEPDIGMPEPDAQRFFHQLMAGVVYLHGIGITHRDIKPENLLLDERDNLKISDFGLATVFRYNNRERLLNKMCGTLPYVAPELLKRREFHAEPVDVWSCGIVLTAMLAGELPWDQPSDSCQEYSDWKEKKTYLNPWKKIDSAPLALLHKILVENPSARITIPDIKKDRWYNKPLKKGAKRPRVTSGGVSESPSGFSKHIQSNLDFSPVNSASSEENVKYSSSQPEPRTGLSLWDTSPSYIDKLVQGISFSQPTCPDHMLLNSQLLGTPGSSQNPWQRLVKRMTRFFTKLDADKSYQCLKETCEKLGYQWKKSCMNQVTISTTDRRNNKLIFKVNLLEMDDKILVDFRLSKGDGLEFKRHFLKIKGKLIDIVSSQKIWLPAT

DMPK = DMPK (Homo sapiens, UniProt Q09013); conditions: read-out: Percent Control
DYRK2 = DYRK2 (Homo sapiens, UniProt Q92630)
DYRK2, sequence (Q92630 whole entry): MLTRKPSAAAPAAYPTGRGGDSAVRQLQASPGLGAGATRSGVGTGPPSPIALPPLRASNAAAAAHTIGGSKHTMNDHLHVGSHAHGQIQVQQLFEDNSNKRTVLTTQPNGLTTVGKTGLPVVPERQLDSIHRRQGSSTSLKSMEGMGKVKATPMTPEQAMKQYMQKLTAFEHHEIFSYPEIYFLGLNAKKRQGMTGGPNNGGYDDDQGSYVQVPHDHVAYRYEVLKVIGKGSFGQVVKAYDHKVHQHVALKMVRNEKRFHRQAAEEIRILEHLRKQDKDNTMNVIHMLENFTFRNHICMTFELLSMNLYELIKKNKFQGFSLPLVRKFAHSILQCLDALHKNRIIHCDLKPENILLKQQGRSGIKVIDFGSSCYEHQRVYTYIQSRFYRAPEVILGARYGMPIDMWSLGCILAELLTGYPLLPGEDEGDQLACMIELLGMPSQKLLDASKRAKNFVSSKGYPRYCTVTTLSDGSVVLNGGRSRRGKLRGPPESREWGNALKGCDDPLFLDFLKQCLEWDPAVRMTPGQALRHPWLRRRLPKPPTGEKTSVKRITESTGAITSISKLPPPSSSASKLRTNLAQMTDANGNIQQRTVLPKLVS
Method in brief: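 Serial 3-fold dilutions (11 points) of compound were made in 100% DMSO at 100× test concentration and diluted to 1× in the assay. Each compound concentration was then competed against an immobilised ligand for binding of DNA-tagged kinase. Ligand-bound kinase was measured by RT-qPCR.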

IGF1R = IGF1R (Homo sapiens, UniProt P08069); conditions: read-out: Percent Control
IGF1R, sequence (P08069 whole entry): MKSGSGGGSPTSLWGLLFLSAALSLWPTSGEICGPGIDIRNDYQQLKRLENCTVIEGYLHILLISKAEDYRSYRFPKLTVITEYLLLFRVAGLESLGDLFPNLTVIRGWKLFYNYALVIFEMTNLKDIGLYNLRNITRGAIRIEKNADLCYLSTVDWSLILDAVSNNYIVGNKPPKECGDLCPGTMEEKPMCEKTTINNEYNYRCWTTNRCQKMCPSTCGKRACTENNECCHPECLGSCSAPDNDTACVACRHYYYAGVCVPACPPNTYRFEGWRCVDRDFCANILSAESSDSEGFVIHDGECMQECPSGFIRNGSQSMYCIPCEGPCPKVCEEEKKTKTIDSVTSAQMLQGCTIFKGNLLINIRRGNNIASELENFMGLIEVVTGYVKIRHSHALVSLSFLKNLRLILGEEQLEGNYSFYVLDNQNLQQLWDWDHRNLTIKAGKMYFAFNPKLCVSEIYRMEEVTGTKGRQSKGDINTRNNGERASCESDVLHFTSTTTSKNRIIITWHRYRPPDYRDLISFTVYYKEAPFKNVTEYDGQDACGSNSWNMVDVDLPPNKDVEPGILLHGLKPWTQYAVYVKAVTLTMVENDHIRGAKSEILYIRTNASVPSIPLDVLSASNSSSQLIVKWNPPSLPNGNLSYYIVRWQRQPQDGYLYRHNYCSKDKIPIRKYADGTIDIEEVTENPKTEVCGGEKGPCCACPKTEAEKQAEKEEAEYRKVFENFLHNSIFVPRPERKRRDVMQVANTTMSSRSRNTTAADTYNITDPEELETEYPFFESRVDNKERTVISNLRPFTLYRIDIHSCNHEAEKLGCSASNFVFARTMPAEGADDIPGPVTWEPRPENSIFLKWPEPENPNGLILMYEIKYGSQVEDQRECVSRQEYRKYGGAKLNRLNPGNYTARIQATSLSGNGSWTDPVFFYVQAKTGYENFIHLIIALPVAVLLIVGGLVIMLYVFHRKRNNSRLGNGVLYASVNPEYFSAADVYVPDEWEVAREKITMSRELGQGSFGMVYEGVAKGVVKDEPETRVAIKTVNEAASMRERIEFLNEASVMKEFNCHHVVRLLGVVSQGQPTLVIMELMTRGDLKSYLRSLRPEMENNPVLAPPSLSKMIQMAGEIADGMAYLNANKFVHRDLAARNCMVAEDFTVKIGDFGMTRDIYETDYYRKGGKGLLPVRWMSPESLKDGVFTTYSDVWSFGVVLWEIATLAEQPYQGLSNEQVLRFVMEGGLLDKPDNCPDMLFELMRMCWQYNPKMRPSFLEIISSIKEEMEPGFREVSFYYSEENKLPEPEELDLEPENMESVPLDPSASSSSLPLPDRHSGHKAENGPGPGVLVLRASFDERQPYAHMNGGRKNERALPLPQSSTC

ITK = ITK (Homo sapiens, UniProt Q08881); conditions: read-out: Percent Control
MAPK10 = MAPK10 (Homo sapiens, UniProt P53779); conditions: read-out: Percent Control
MAPK8 = MAPK8 (Homo sapiens, UniProt P45983); conditions: read-out: Percent Control
NUAK1 = NUAK1 (Homo sapiens, UniProt O60285); conditions: read-out: Percent Control
NUAK1, sequence (O60285 whole entry): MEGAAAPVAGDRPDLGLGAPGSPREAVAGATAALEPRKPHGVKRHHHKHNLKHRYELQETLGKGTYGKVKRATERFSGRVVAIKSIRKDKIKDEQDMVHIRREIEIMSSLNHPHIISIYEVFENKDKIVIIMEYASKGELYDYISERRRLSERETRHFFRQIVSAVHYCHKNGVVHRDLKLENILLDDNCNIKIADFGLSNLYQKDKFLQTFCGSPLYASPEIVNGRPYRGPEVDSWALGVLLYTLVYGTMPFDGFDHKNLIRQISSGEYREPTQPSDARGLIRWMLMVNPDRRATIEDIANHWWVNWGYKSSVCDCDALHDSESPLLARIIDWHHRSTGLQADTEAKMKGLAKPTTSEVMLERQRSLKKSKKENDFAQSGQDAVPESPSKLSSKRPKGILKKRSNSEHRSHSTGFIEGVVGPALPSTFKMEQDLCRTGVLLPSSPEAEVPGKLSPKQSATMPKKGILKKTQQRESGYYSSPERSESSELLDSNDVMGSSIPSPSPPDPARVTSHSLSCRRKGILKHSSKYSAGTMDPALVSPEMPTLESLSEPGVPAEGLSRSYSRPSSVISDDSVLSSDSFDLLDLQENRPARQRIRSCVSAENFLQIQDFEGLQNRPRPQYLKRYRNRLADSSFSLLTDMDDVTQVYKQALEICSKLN

PAK4 = PAK4 (Homo sapiens, UniProt O96013); conditions: read-out: Percent Control
PLK3 = PLK3 (Homo sapiens, UniProt Q9H4B4); conditions: read-out: Percent Control
PLK3, sequence (Q9H4B4 whole entry): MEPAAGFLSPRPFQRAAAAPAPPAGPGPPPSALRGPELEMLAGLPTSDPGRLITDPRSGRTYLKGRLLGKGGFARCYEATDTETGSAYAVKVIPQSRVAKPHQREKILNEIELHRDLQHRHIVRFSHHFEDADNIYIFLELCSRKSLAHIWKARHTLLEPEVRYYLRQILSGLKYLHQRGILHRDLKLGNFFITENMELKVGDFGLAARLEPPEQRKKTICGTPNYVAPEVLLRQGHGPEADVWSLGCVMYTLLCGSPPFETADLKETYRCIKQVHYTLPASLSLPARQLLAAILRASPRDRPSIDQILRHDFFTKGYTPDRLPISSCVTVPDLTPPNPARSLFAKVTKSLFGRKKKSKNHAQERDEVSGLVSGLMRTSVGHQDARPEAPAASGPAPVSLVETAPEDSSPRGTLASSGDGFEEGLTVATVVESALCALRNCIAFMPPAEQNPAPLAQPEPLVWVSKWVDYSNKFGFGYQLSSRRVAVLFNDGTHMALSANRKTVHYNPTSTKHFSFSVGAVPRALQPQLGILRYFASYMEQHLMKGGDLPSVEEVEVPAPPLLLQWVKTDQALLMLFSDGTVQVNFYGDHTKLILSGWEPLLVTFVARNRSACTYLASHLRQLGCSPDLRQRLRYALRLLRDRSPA

PRKG2 = PRKG2 (Homo sapiens, UniProt Q13237); conditions: read-out: Percent Control
SIK1 = SIK1 (Homo sapiens, UniProt P57059); conditions: read-out: Percent Control
STK38L = STK38L (Homo sapiens, UniProt Q9Y2H1); conditions: read-out: Percent Control
TTK = TTK (Homo sapiens, UniProt P33981); conditions: read-out: Percent Control
VRK2 = VRK2 (Homo sapiens, UniProt Q86Y07); conditions: read-out: Percent Control

BMP2K, sequence (Q9NSY1 whole entry): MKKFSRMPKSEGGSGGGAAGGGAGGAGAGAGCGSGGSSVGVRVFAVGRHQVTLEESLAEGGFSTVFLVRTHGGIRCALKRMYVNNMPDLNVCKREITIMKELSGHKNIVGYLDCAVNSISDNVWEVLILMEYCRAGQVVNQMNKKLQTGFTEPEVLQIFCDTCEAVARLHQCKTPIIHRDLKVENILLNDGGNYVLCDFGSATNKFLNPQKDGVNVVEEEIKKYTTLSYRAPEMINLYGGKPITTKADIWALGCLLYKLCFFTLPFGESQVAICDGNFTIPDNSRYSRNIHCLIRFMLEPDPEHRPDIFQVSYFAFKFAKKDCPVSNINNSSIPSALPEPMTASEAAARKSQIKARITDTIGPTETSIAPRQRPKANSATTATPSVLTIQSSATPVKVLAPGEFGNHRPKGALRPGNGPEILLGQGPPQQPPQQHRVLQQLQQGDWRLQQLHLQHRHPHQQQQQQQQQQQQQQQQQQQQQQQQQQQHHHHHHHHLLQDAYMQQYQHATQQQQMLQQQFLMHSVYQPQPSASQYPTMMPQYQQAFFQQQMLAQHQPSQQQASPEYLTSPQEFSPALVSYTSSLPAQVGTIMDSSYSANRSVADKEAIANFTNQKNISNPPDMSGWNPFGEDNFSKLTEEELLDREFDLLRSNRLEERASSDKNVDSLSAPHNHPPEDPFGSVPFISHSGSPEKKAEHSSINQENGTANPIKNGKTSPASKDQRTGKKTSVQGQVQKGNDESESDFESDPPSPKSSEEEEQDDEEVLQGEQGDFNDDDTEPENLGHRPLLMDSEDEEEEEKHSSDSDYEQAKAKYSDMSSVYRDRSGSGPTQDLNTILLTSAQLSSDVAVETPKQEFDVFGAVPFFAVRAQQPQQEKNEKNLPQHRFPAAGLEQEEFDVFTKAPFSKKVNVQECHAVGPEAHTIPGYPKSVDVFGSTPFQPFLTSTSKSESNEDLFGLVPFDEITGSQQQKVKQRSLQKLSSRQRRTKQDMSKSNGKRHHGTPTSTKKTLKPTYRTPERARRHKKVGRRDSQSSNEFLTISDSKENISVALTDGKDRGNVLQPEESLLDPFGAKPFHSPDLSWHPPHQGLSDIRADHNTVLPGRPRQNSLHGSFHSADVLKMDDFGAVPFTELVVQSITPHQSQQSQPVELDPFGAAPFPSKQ

`Oc1ccc(C2=Cc3ccc(O)cc3OC2)cc1` [compound 1, idronoxil] was tested. Which remaining binding at 10 µM (BMP2K) did it give?
The remaining binding at 10 µM was 86%.

What about the remaining binding at 10 µM (BRAF) of the same compound?
Its remaining binding at 10 µM is 76%.

And the remaining binding at 10 µM (CDC42BPB)?
The remaining binding at 10 µM was 88%.

What about the remaining binding at 10 µM (CDK3) of the same compound?
The remaining binding at 10 µM was 89%.

What about the remaining binding at 10 µM (CDKL3) of the same compound?
Its remaining binding at 10 µM is 59%.

What about the remaining binding at 10 µM (CHEK1) of the same compound?
The remaining binding at 10 µM was 88%.

What about the remaining binding at 10 µM (DMPK) of the same compound?
Its remaining binding at 10 µM is 92%.

What about the Kd (DYRK2) of the same compound?
Its Kd is 2700 nM.

And the remaining binding at 10 µM (DYRK2; read-out: Percent Control)?
Its remaining binding at 10 µM is 11%.

What about the remaining binding at 10 µM (IGF1R) of the same compound?
The remaining binding at 10 µM was 84%.

What about the remaining binding at 10 µM (ITK) of the same compound?
The remaining binding at 10 µM was 97%.

What about the remaining binding at 10 µM (MAPK10) of the same compound?
Its remaining binding at 10 µM is 93%.

And the remaining binding at 10 µM (MAPK8)?
The remaining binding at 10 µM was 68%.

What about the remaining binding at 10 µM (NUAK1) of the same compound?
The remaining binding at 10 µM was 97%.

And the remaining binding at 10 µM (PAK4)?
The remaining binding at 10 µM was 76%.

What about the remaining binding at 10 µM (PLK3) of the same compound?
The remaining binding at 10 µM was 100%.

And the remaining binding at 10 µM (PRKG2)?
Its remaining binding at 10 µM is 71%.

What about the remaining binding at 10 µM (SIK1) of the same compound?
The remaining binding at 10 µM was 97%.

And the remaining binding at 10 µM (STK38L)?
The remaining binding at 10 µM was 92%.

And the remaining binding at 10 µM (TTK)?
Its remaining binding at 10 µM is 83%.

And the remaining binding at 10 µM (VRK2)?
The remaining binding at 10 µM was 67%.
